Laboratory results taken from patent US20170251662A1, “ALTERNATIVE DEVICE AND METHODS FOR APPLICATION OF 1-METHYLCYCLOPROPENE TO FRUIT” (AGROFRESH INC., priority 2016, published 2017).

Columns and labels:
Assay type in all cases: in vivo
Bartlett pears = assay: Liquid 1-MCP drench treatment on pears; design: key to Firmness, statistical significance between control and treated bins of pears by layers / Ethylene Content, statistical significance between control and treated bins of pears by layers / Skin Color, statistical significance between control and treated bins of pears by layers: Lx: layers that contained fruit that were not statistically significantly different from control; All: fruit tested in all layers was statistically significantly different from control; None: no layers were identified that had statistical significance from control
Description: Bins of freshly harvested Bartlett pears were sprayed with 0 gal (control), 1.0 gal, 2.0 gal, or 3.0 gal of Harvista AFxRD038 formulation. The AFxRD038 liquid 1-methylcyclopropene (1-MCP) formulation was made of 3 gal of water, 36 g of AFxRD038, 113 ml of HiSupreme Spray Oil, and 5.63 ml of Silwett L-77 surfactant.
A CO2 backpack sprayer was used to apply the different volumes of 1-MCP treatment within an initial time period of a few days (e.g., about 2-3 days). The formulation was applied to bins containing a total of approximately 900 lbs of pears. Each bin comprised 7-9 layers depending on the size of the pears, with layer 1 being the top layer and layers 7-9 being the bottom layer. A control bin having 9 layers of pears was not sprayed with 1-MCP treatment.
The bins of pears were allowed to air dry outside, and were then stored in regular cold air (i.e., about 4° C.) for a second time period of about two days. The fruit was then moved to a controlled atmosphere storage having a temperature of 31° F. for a third time period of about 45 days. Upon removal of the fruit from storage in the bins, the fruit was then placed in a warm room having a temperature of about 68° F. for a fourth time period of about six days.
On the sixth day of the fourth time period of warm room exposure, each individual bin of fruit was sampled in a uniform fashion. Uniform sampling was performed by removing about 250 pears from the top of each bin, layer-by-layer. Each layer of about 250 fruit was stored in plastic bins for further analysis during a fifth time period. Day 6 evaluation occurred on the same day the layers were removed from the bin. Four days later (Day 10), another series of fruit layers were analyzed. Four more days later (Day 14), the last set of fruit from the bins were analyzed.
On days 6, 10, and 14, a subset of fruit from each layer of each bin was analyzed for firmness, ethylene content, and fruit skin color. Quality measurements were taken on an individual layer of fruit within each treated bin to establish the effectiveness and consistency of the treatments from top to bottom of each fruit bin (see FIGS. 3-5). For example, firmness of the pears was measured by peeling the pears, and measuring the middle pulp with an 8 mm tip.

Red Delicious apples = assay: Liquid 1-MCP drench treatment on apples; design: key to Ethylene Content, statistical significance between control and treated bins of apples by layers: Lx: layers that contained fruit that were not statistically significantly different from control; All: fruit tested in all layers was statistically significantly different from control; None: no layers were identified that had statistical significance from control; conditions: for Firmness of apples compared with unsprayed control apples: most apples
Description: This experiment was conducted to test the effect of 1-MCP treatment on Red Delicious apples. This experiment was performed exactly as detailed above in Example 1 for Bartlett pears, but with a few noted exceptions described here. Specifically, Red Delicious apples were treated with a 1-MCP treatment comprising 31 g of AFxRD038. The apples were treated with 0.5 gal, 1.0 gal, and 2.0 gal volumes of the 1-MCP treatment, which were applied to bins of apples comprised in 9-10 layers depending on the size of the apples. A control bin having 10 layers of apples was not sprayed with 1-MCP treatment. The apples were stored for a third time period at room temperature for 33 days. The apples were analyzed for firmness and ethylene content at warm day 7 and 14 of the fifth time period.

Cantaloupe melons [1] = assay: Comparative liquid 1-MCP spray treatment on melons, stored about 9 days
Description: This experiment was conducted to test the effect of 1-MCP spray treatment on Cantaloupe melons as compared to SmartFresh treatment. This experiment was performed exactly as detailed above in Example 1 for Bartlett pears, but with a few noted exceptions described here. The bins of melons were allowed to air dry outside, and were then stored in regular cold air (i.e., about 36° F.) for a second time period of about 9 days. The melons were then moved to a regular atmosphere storage having a temperature of about 70° F. for a third time period of about 2, 4, or 6 more days. Upon removal of the fruit from storage in the bins, the fruit were then analyzed for firmness. Firmness of the melons was measured by cutting the melons in half, and measuring the middle pulp with an 8 mm tip.

Cantaloupe melons [2] = assay: Comparative liquid 1-MCP spray treatment on melons, stored about 15 days
Description: This experiment was conducted to test the effect of 1-MCP spray treatment on Cantaloupe melons as compared to SmartFresh treatment. Bins containing 9 kilograms each of freshly harvested Cantaloupe melons were sprayed four times using a dual-liquid sprayer comprising the Harvista AFx701 formulation (see FIG. 10). Each spray of the AFx701 liquid 1-methylcyclopropene (1-MCP) formulation comprised 83.5 mg of AFx701 and 608 mg of water. Thus, a total amount of 1.67 mg of 1-MCP active ingredient and 2.43 g of water was applied to each bin of melons, which equates to 0.185 mg of 1-MCP per kg of melons. The 1-MCP treatment formulations were prepared and applied to […] using a sprayer, and compared to apples that had been treated with SmartFresh or no 1-MCP at all (control).
The bins of melons were allowed to air dry outside, and were then stored in regular cold air (i.e., about 36° F.) for a second time period of about 15 days. The melons were then moved to a regular atmosphere storage having a temperature of about 70° F. for a third time period of about 2, 4, or 6 more days. Upon removal of the fruit from storage in the bins, the fruit were then analyzed for firmness. Firmness of the melons was measured by cutting the melons in half, and measuring the middle pulp with an 8 mm tip.
Day 15 evaluation occurred on the same day the fruit were removed from storage in the bin. Two days later (Day 15+2), another series of fruit were analyzed. Two more days later (Day 15+4), an additional set of fruit were removed and analyzed. Finally, the last set of fruit from the bins was analyzed two days later (Day 15+6). Quality measurements were taken on individual melons randomly selected from different treated bins and different positions within each treated bin (e.g., the edge and/or the center of the bin) to establish the effectiveness and consistency of the treatments (see FIG. 11).

Golden Delicious apples = assay: Comparative analysis of 1-MCP treatments of apples applied with the wand device; conditions: for Fruit firmness of apples relative to SmartFresh and control apples: 65 days at about 1° C. + 7 days room temperature
Description: This experiment was conducted to test the effect of different application methods of 1-MCP treatment (i.e., Harvista AFx701) on Golden Delicious apples in bins. Apples were treated with two different formulations of the 1-MCP treatment, including a formulation comprising 1) 20 grams of 1-MCP and 2 liters of water, which was applied in 10 seconds and 2) 60 grams of 1-MCP and 6 liters of water, which was applied in 30 seconds. The 1-MCP treatment formulations were prepared and applied to apples using the wand device, and compared to apples that had been treated with SmartFresh or no 1-MCP at all (control).
Apples were stored for 65 days in cold air at about 1° C. temperature, prior to being stressed for 7 days at room temperature. Replicates of 25 fruit were sampled from each layer of each fruit bin to analyze fruit firmness (in pounds, lbs) and internal ethylene concentration (ppm). Data were analyzed on a whole bin basis using all replicates from each layer.

[3] = spray, 9 days cold storage, all days
[4] = Treatment 2: 60 grams of 1-MCP and 6 liters of water, 30 seconds, wand device

CC1=CC1 [1-MCP, 1-Methylcyclopropene]
Firmness of pears compared with unsprayed control fruit (Bartlett pears; 1 gal, 2 gal or 3 gal, layers 1-9, warm days 6, 10 and 14): significantly better firmness
Firmness, statistical significance between control and treated bins of pears by layers (Bartlett pears; WRD 6, 1 Gal): All
Skin Color, statistical significance between control and treated bins of pears by layers (Bartlett pears; WRD 6, 1 Gal): All
Firmness, statistical significance between control and treated bins of pears by layers (Bartlett pears; WRD 6, 2 Gal): All
Skin Color, statistical significance between control and treated bins of pears by layers (Bartlett pears; WRD 6, 2 Gal): All
Firmness, statistical significance between control and treated bins of pears by layers (Bartlett pears; WRD 6, 3 Gal): All
Skin Color, statistical significance between control and treated bins of pears by layers (Bartlett pears; WRD 6, 3 Gal): All
Ethylene Content, statistical significance between control and treated bins of pears by layers (Bartlett pears; WRD 10, 1 Gal): All
Firmness, statistical significance between control and treated bins of pears by layers (Bartlett pears; WRD 10, 1 Gal): All
Skin Color, statistical significance between control and treated bins of pears by layers (Bartlett pears; WRD 10, 1 Gal): All
Firmness, statistical significance between control and treated bins of pears by layers (Bartlett pears; WRD 10, 2 Gal): All
Skin Color, statistical significance between control and treated bins of pears by layers (Bartlett pears; WRD 10, 2 Gal): All
Firmness, statistical significance between control and treated bins of pears by layers (Bartlett pears; WRD 10, 3 Gal): All
Skin Color, statistical significance between control and treated bins of pears by layers (Bartlett pears; WRD 10, 3 Gal): All
Firmness, statistical significance between control and treated bins of pears by layers (Bartlett pears; WRD 14, 1 Gal): All
Skin Color, statistical significance between control and treated bins of pears by layers (Bartlett pears; WRD 14, 1 Gal): None
Firmness, statistical significance between control and treated bins of pears by layers (Bartlett pears; WRD 14, 2 Gal): All
Skin Color, statistical significance between control and treated bins of pears by layers (Bartlett pears; WRD 14, 2 Gal): None
Firmness, statistical significance between control and treated bins of pears by layers (Bartlett pears; WRD 14, 3 Gal): All
Skin Color, statistical significance between control and treated bins of pears by layers (Bartlett pears; WRD 14, 3 Gal): None
Control and/or inhibition of fruit ripening in pears (Bartlett pears; as little as 1 gal of 1-MCP treatment): effective to control and/or inhibit fruit ripening in pears
Fruit color of pears compared with unsprayed control fruit (Bartlett pears; layers 1-9, days 6 and 10): significantly less fruit color
Ethylene concentration of pears compared with unsprayed control fruit (Bartlett pears; layers 1-9, warm days 6, 10 and 14): significantly lower ethylene concentrations
Fruit skin color of pears compared with control (Bartlett pears; warm day 14): none of the layers showed a significant difference
Ethylene Content, statistical significance between control and treated bins of apples by layers (Red Delicious apples; WRD 7, 0.5 Gal): All
Ethylene Content, statistical significance between control and treated bins of apples by layers (Red Delicious apples; WRD 7, 1 Gal): All
Ethylene Content, statistical significance between control and treated bins of apples by layers (Red Delicious apples; WRD 7, 2 Gal): All
Ethylene Content, statistical significance between control and treated bins of apples by layers (Red Delicious apples; WRD 14, 2 Gal): All
Control and/or inhibition of fruit ripening in apples (Red Delicious apples; as little as 0.5 gal of 1-MCP treatment): effective to control and/or inhibit fruit ripening in apples
Firmness of apples compared with unsprayed control apples (Red Delicious apples; day 14, except layers 2, 5, 8 and 10): significantly better firmness
Ethylene concentration of apples compared with unsprayed control apples (Red Delicious apples; warm day 7, layers 1-10): significantly lower ethylene concentrations
Firmness of apples compared with unsprayed control apples (Red Delicious apples; warm day 7, except layers 5, 8 and 9): significantly better firmness
Firmness of melons compared with SmartFresh-treated melons (Cantaloupe melons [1]; Day 9+4): even higher
Control and/or inhibition of fruit ripening in melons (Cantaloupe melons [1]; spray, 9 days cold storage): effective to control and/or inhibit fruit ripening in melons
Firmness of melons compared with SmartFresh-treated fruit (Cantaloupe melons [1]; [3]): statistically the same as SmartFresh treated fruit
Firmness of melons compared with control (Cantaloupe melons [1]; [3]): significant differences from the control
Control and/or inhibition of fruit ripening in melons (Cantaloupe melons [2]; 15 days cold storage): effective to control and/or inhibit fruit ripening in melons
Firmness of melons compared with control fruit (Cantaloupe melons [2]; Day 15, 15+2, 15+4, 15+6 (all days)): significant differences from the control fruit
Firmness of melons compared with SmartFresh-treated melons (Cantaloupe melons [2]; all days): relatively comparable to melons treated with SmartFresh
Control and/or inhibition of fruit ripening in apples (Golden Delicious apples; 1-MCP treatment applied with a wand device): effective to control and/or inhibit fruit ripening in apples
Fruit firmness of apples relative to SmartFresh and control apples (Golden Delicious apples; Treatment 1: 20 grams of 1-MCP and 2 liters of water, 10 seconds, wand device): highest
Internal ethylene concentration of apples compared with Treatment 1 or control (Golden Delicious apples; [4]): significantly less ethylene concentration
Fruit firmness of apples relative to SmartFresh and control apples (Golden Delicious apples; [4]): highest
